Experiments:
[1] = (A3) Anti-CD3/CD28 antibody-stimulated cytokine production inhibitory activity in PBMC, ELISA: TNF γ; assay type: cell-based; settings: Homo sapiens, anti-CD3 and anti-CD28 antibodies, 24-hr culture supernatant
Description: (§1) (A3) Anti-CD3/CD28 antibody-stimulated TNF α production inhibitory activity in human peripheral blood monocytes (PBMC)
(§2) [Method] Monocytes isolated from healthy adult male volunteers were cultured and stimulated with anti-CD3 and anti-CD28 antibodies and the amounts of TNF, INF, 1L-2, IL-4 and IL-10 in the 24-hr culture supernatant were determined by ELISA.

[2] = test system: P. acnes/LPS-induced mouse hepatitis model; assay: (B4) P. acnes/LPS-induced mouse hepatitis model; assay type: in vivo, ICR mice; settings: oral, 9 hours after administration of the drug
Description: (B4) P. acnes/LPS-induced mouse hepatitis model
[Method] Propionibacterium acnes (P. acnes) killed by heat treatment was lyophilized and used in the experiment. To 7-week-old male ICR mice, either saline or P. acnes, 0.6 mg/0.2 ml/mouse, was administered intravenously. After 7 days, the drug or the solvent vehicle was administered orally in predetermined doses to the animals deprived of food for 20 hours. At. 9 hours after administration of the drug, the blood was drawn and the liver-derived enzymes (ALT and AST) in plasma were assayed.

[3] = test system: DGalN/LPS-induced rat hepatitis model; assay: (B1) DGalN/LPS-induced rat hepatitis model; assay type: in vivo, Wistar rats; settings: oral, 24 hr after DGalN/LPS
Description: (B1) DGalN/LPS-induced rat hepatitis model
[Method] Male Wistar rats aged 12 weeks were deprived of food for 24 hours and dosed orally with the drug or the solvent vehicle in predetermined doses. Immediately thereafter, saline was administered from the tail vein to the NORMAL group and D-galactosamine hydrochloride (DGalN) (300 mg/kg)/LPS (0.32 µg/kg) was administered similarly to the CONTROL and DRUG groups. At 24 hr after administration of DGaIN/LAS, the blood was drawn and the liver isolated. Using the blood, liver-derived enzymes (ALT and AST) in plasma were assayed. The liver was fixed in formalin and phathological specimens were prepared. Histopathological findings (inflammatory cell infiltration and liver cell necrosis) were evaluated.

[4] = test system: Guinea-pig model of delayed asthma; assay: (B6) Guinea-pig model of delayed asthma; assay type: in vivo, Hartley guinea pigs; settings: oral 1 hour before exposure to the antigen; 4~8 hours after exposure
Description: (B6) Guinea-pig model of delayed asthma
[Method] Male Hartley guinea pigs were sensitized intraperitoneally with ovalbumin/Freund's complete adjuvant. On day 23 after immunization, the animals were caused to inhale a mist of ovalbumin solution from a sonic nebulizer for 3 minutes to elicit an asthmatic response. The drug was administered orally 1 hour before exposure to the antigen. The special airway resistance (sRaw) after exposure to the antigen was measured and the case in which the sRaw value had increased two-fold or more from the pre-exposure baseline in 4~8 hours was regarded as a case of delayed asthma.

physchem = settings: thermodynamic from solid
[5] = test system: DGalN-induced rat hepatitis model; assay: (B2) DGalN-induced rat hepatitis model; assay type: in vivo, Wistar rats; settings: oral, 24 hours after DGalN
Description: (B2) DGalN-induced rat hepatitis model
[Method] Male Wistar rats aged 12 weeks were deprived of food for 24 hours and dosed orally with the drug or the solvent vehicle in predetermined doses. Immediately thereafter, saline was administered intraperitoneally to the NORMAL group and D-galactosamine hydrochloride (DGalN), 400 mg/kg, was administered similarly to the CONTROL and DRUG groups. At 24 hours after administration of DGalN, the blood was drawn and the liver isolated. Using the blood, the liver-derived en zymes (ALT, AST) in plasma were assayed. The liver was fixed in formalin and pathological specimens were prepared. Histopathological findings (inflammatory cell infiltration and liver cell necrosis) were evaluated.

IL-4 = assay: (A3) Anti-CD3/CD28 antibody-stimulated cytokine production inhibitory activity in PBMC, ELISA: IL-4; assay type: cell-based; settings: Homo sapiens, anti-CD3 and anti-CD28 antibodies, 24-hr culture supernatant
Description: as §1, §2

[6] = test system: LEC rat spontaneous hepatitis model; assay: (B5) LEC rat spontaneous hepatitis model; assay type: in vivo, Long Evans Cinnamon (LEC) rats; settings: oral once daily for 23 consecutive weeks
Description: (B5) LEC rat spontaneous hepatitis model
Long Evans Cinnamon (LEC) rats are known to spontaneously develop acute hepatitis with jaundice as a cardinal sign and 50~70% of them experience a fulminating stage and die. It is also known that almost all surviving animals run a clinical course of acute hepatitis-chronic hepatitis-biliary fibrosis (cirrhosis)-hepatocarcinoma.
[Method] To 9-week-old male LEC rats, either the drug or the solvent vehicle was administered orally in predetermined doses once daily for 23 consecutive weeks. On the day following the last dosing day, the blood was drawn and the liver isolated. Using the blood, the liver-derived enzymes (ALT, AST) in plasma were assayed. The liver was fixed in formalin and pathological specimens were prepared. Histopathological findings (inflammatory cell infiltration, biliary hyperplasia and liver cell necrosis) were evaluated.

[7] = test system: Arachidonic acid-induced ear edema model; assay: (B7) Atopy, Method 1: arachidonic acid-induced ear edema model; assay type: in vivo, Balb/c mice; settings: oral 30 minutes before arachidonic acid; auricle thickness after 1 hour
Description: [Method 1] Arachidonic acid-induced ear edema model:
To the left auricle of Balb/c mice, 2 mg/ear of arachidonic acid was applied to induce a skin inflammation. After 1 hour, the thickness of the auricle was measured with a peacock dial thickness gage and used as an indicator of skin inflammation. The drug was administered orally 30 minutes before application of arachidonic acid.

Hygroscopicity = assay type: physicochemical
Text: In the study on polymorphism of compound (I), six kinds of polymorphs (A01, A09, A16, A20, A30 and A43 crystals) were found. For each of those polymorphs, hygroscopicity, stability in solid state, solubility and changes in crystallinity on compounding with various solvents were studied. However, the A30 crystal was not studied since it contains ethanol.

TNF α = assay: (A3) Anti-CD3/CD28 antibody-stimulated cytokine production inhibitory activity in PBMC, ELISA: TNF α; assay type: cell-based; settings: Homo sapiens, anti-CD3 and anti-CD28 antibodies, 24-hr culture supernatant
Description: as §1, §2

IL-2 = assay: (A3) Anti-CD3/CD28 antibody-stimulated cytokine production inhibitory activity in PBMC, ELISA: IL-2; assay type: cell-based; settings: Homo sapiens, anti-CD3 and anti-CD28 antibodies, 24-hr culture supernatant
Description: as §1, §2

human PDE4-B1 isoform = molecular target: T1, human PDE4-B1 isoform (Homo sapiens, UniProt Q07343); assay: (A1) PDE-IV inhibitory activity, crude enzyme from CHO cells expressing the cDNA; assay type: biochemical
T1 construct: made in house; host or cells: CHO cells
Description: (A1) PDE-IV inhibitory activity [Method] A crude enzyme was prepared from the cells (CHO cells) to which the cDNA for human PDE4-B1 isoform had been introduced for expression of the protein and the PDE4 inhibitory activity of the compound (I) of this invention was determined.

[8] = test system: mouse model of NC/NGa dermatitis; assay: (B7) Atopy, Method 2: spontaneous atopic dermatitis model; assay type: in vivo; settings: oral once daily for 17 consecutive days
Description: [Method 2] Spontaneous atopic dermatitis mode:
In the mouse model of NC/NGa dermatitis, the drug was administered orally once daily for 17 consecutive days.

T1 sequence (Q07343 whole entry, canonical isoform): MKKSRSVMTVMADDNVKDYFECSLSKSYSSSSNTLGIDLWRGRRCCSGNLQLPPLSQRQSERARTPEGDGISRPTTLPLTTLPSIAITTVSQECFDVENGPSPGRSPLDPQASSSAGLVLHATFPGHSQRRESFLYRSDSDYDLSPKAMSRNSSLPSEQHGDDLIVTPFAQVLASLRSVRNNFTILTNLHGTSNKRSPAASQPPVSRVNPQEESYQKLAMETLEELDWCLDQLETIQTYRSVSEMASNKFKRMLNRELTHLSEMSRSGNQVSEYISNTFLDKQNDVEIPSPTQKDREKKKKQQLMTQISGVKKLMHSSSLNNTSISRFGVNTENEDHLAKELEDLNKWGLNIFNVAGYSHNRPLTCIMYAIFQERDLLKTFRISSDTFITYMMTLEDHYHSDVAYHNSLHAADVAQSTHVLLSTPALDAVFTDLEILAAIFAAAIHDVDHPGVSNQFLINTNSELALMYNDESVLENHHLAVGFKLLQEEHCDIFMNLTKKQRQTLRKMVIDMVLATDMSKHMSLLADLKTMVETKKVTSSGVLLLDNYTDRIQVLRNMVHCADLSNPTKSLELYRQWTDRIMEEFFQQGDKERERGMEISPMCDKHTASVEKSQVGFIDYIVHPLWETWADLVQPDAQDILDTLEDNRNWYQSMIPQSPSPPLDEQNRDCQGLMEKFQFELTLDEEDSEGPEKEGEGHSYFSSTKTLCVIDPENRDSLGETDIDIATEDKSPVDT

CS(=O)(=O)O.O.O.O=C(Nc1cccc(-n2c(=O)c(Cc3cccnc3)nc3cccnc32)c1)c1cc(Cl)cc(Cl)c1 [Example 2, 4-(3-(3,5-dichlorobenzoylamino)phenyl)-2-(3-pyridyl)methyl-3-oxo-3,4-dihydropyrido[2,3-b]pyrazine methanesulfonate dihydrate]
IC50 [1]: 57.3 nM
elevation of blood ALT [2]: significantly inhibited
elevation of blood AST [2]: significantly inhibited
elevation of blood ALT [3]: significantly inhibited
elevation of blood AST [3]: significantly inhibited
inflammatory cell infiltration ([3]; histopathology): inhibited
liver cell necrosis ([3]; histopathology): inhibited
delayed asthmatic response [4]: inhibited
solubility at 30 min (physchem; saline or isotonic): 64.3 µg/mL
solubility at 30 min (physchem; water): 887 µg/mL
elevation of blood ALT [5]: significantly inhibited
elevation of blood AST [5]: significantly inhibited
inflammatory cell infiltration ([5]; histopathology): inhibited
liver cell necrosis ([5]; histopathology): inhibited
IC50 (IL-4): 155 nM
elevation of blood ALT [6]: significantly inhibited
elevation of blood AST [6]: significantly inhibited
inflammatory cell infiltration ([6]; histopathology): inhibited
liver cell necrosis ([6]; histopathology): inhibited
ear edema [7]: significantly inhibited
Hygroscopicity (Hygroscopicity): less hygroscopic
IC50 (TNF α): 44.5 nM
IC50 (IL-2): 130 nM
IC50 (human PDE4-B1 isoform): 26 nM
disease state-ameliorating effect [8]: significant disease state-ameliorating effect

Reference: patent EP1118615A1, “NOVEL SALTS OF PYRIDOPYRAZINE COMPOUND AND CRYSTALS THEREOF” (FUJISAWA PHARMACEUTICAL CO., LTD., priority 1998, dated 2000)
